In ChEMBL document CHEMBL1201861, “Genomics of Drug Sensitity in Cancer screening data, Wellcome Trust Sanger Institute”:

Key:
Assay in all cases: cells
ATN-1 = assay type: functional, cell-based, Homo sapiens; conditions: Homo sapiens, ATN-1;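 further: growth inhibition of human ATN-1 cells, read out with a cell viability assay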
Description: SANGER: Inhibition of human ATN-1 cell growth in a cell viability assay.

NCI-H526 = assay type: functional, cell-based, Homo sapiens; conditions: Homo sapiens, NCI-H526;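 further: growth inhibition of the human NCI-H526 cell line, measured by a cell viability assay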
Description: SANGER: Inhibition of human NCI-H526 cell growth in a cell viability assay.

IST-MES1 = assay type: functional, cell-based, Homo sapiens; conditions: Homo sapiens, IST-MES1;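 further: growth inhibition of IST-MES1 cells, measured with a cell viability assay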
Description: SANGER: Inhibition of human IST-MES1 cell growth in a cell viability assay.

HAL-01 = assay type: functional, cell-based, Homo sapiens; conditions: Homo sapiens, HAL-01;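 further: growth inhibition of human HAL-01 cells, read out with a cell viability assay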
Description: SANGER: Inhibition of human HAL-01 cell growth in a cell viability assay.

DJM-1 = assay type: functional, cell-based, Homo sapiens; conditions: Homo sapiens, DJM-1;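 further: growth inhibition of human DJM-1 cells, read out by a cell viability assay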
Description: SANGER: Inhibition of human DJM-1 cell growth in a cell viability assay.

KE-37 = assay type: functional, cell-based, Homo sapiens; conditions: Homo sapiens, KE-37;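 further: growth inhibition of KE-37 cells, read out with a cell viability assay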
Description: SANGER: Inhibition of human KE-37 cell growth in a cell viability assay.

HCE-T = assay type: functional, cell-based, Homo sapiens; conditions: Homo sapiens, HCE-T;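 further: cell viability assay read-out, reporting inhibition of HCE-T cell growth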
Description: SANGER: Inhibition of human HCE-T cell growth in a cell viability assay.

SHP77 = assay type: functional, cell-based, Homo sapiens, SHP-77; conditions: Homo sapiens, SHP77;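 further: growth inhibition of human SHP-77 cells measured by a cell viability assay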
Description: SANGER: Inhibition of human SHP-77 cell growth in a cell viability assay.

SW 962 = assay type: functional, cell-based, Homo sapiens; conditions: Homo sapiens, SW 962;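 further: growth inhibition of human SW962 cells, read out by a cell viability assay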
Description: SANGER: Inhibition of human SW962 cell growth in a cell viability assay.

BE-13 = assay type: functional, cell-based, Homo sapiens; conditions: Homo sapiens, BE-13;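 further: growth inhibition of human BE-13 cells, measured with a cell viability assay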
Description: SANGER: Inhibition of human BE-13 cell growth in a cell viability assay.

OVCAR-4 = assay type: functional, cell-based, Homo sapiens; conditions: Homo sapiens, OVCAR-4;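 further: growth inhibition of human OVCAR-4 cells, measured with a cell viability assay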
Description: SANGER: Inhibition of human OVCAR-4 cell growth in a cell viability assay.

RXF 393 = assay type: functional, cell-based, Homo sapiens; conditions: Homo sapiens, RXF 393;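 further: growth inhibition of human RXF 393 cells, read out with a cell viability assay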
Description: SANGER: Inhibition of human RXF393 cell growth in a cell viability assay.

SBC-1 = assay type: functional, cell-based, Homo sapiens; conditions: Homo sapiens, SBC-1;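 further: cell viability assay measuring growth inhibition of the SBC-1 cell line, IC50 being the concentration that halves growth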
Description: SANGER: Inhibition of human SBC-1 cell growth in a cell viability assay.

NMC-G1 = assay type: functional, cell-based, Homo sapiens; conditions: Homo sapiens, NMC-G1;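 further: growth inhibition of the NMC-G1 cell line, measured with a cell viability read-out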
Description: SANGER: Inhibition of human NMC-G1 cell growth in a cell viability assay.

EW-13 = assay type: functional, cell-based, Homo sapiens; conditions: Homo sapiens, EW-13; read-out: IC50;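 further: growth inhibition of EW-13 cells, read out with a cell viability assay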
Description: SANGER: Inhibition of human EW-13 cell growth in a cell viability assay.

P30-OHK = assay type: functional, cell-based, Homo sapiens; conditions: Homo sapiens, P30-OHK;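 further: growth inhibition of the P30-OHK cell line, read out with a cell viability assay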
Description: SANGER: Inhibition of human P30-OHK cell growth in a cell viability assay.

LAMA-84 = assay type: functional, cell-based, Homo sapiens; conditions: Homo sapiens, LAMA-84;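 further: growth inhibition of LAMA-84 cells, read out with a cell viability assay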
Description: SANGER: Inhibition of human LAMA-84 cell growth in a cell viability assay.

GCIY = assay type: functional, cell-based, Homo sapiens; conditions: Homo sapiens, GCIY;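 further: growth inhibition of the human GCIY cell line, read out by a cell viability assay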
Description: SANGER: Inhibition of human GCIY cell growth in a cell viability assay.

ML-2 = assay type: functional, cell-based, Homo sapiens; conditions: Homo sapiens, ML-2;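 further: growth inhibition of ML-2 cells, measured with a cell viability readout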
Description: SANGER: Inhibition of human ML-2 cell growth in a cell viability assay.

CTB-1 = assay type: functional, cell-based, Homo sapiens; conditions: Homo sapiens, CTB-1
Description: SANGER: Inhibition of human CTB-1 cell growth in a cell viability assay.

SK-NEP-1 = assay type: functional, cell-based, Homo sapiens; conditions: Homo sapiens, SK-NEP-1;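 further: growth inhibition of human SK-NEP-1 cells, read out by a cell viability assay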
Description: SANGER: Inhibition of human SK-NEP-1 cell growth in a cell viability assay.

COLO-684 = assay type: functional, cell-based, Homo sapiens; conditions: Homo sapiens, COLO-684
Description: SANGER: Inhibition of human COLO-684 cell growth in a cell viability assay.

SNU1 = assay type: functional, cell-based, Homo sapiens; conditions: Homo sapiens, SNU1;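 further: growth inhibition of human NCI-SNU-1 cells, measured with a cell viability assay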
Description: SANGER: Inhibition of human NCI-SNU-1 cell growth in a cell viability assay.

RKO = assay type: functional, cell-based, Homo sapiens; conditions: Homo sapiens, RKO;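 further: growth inhibition of human RKO cells, read out with a cell viability assay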
Description: SANGER: Inhibition of human RKO cell growth in a cell viability assay.

SK-N-FI = assay type: functional, cell-based, Homo sapiens; conditions: Homo sapiens, SK-N-FI;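 further: cell viability assay measuring growth inhibition of human SK-N-FI cells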
Description: SANGER: Inhibition of human SK-N-FI cell growth in a cell viability assay.

NB10 = assay type: functional, cell-based, Homo sapiens; conditions: Homo sapiens, NB10;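 further: growth inhibition of NB10 cells, read out by a cell viability assay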
Description: SANGER: Inhibition of human NB10 cell growth in a cell viability assay.

A4-Fuk = assay type: functional, cell-based, Homo sapiens; conditions: Homo sapiens, A4-Fuk;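 further: growth inhibition of A4-Fuk cells, read out by a cell viability assay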
Description: SANGER: Inhibition of human A4-Fuk cell growth in a cell viability assay.

EW-3 = assay type: functional, cell-based, Homo sapiens; conditions: Homo sapiens, EW-3;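 further: cell viability assay read-out, IC50 reflects inhibition of growth of the EW-3 cells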
Description: SANGER: Inhibition of human EW-3 cell growth in a cell viability assay.

JAR = assay type: functional, cell-based, Homo sapiens; conditions: Homo sapiens, JAR;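 further: growth inhibition of human JAR cells determined with a cell viability assay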
Description: SANGER: Inhibition of human JAR cell growth in a cell viability assay.

MC116 = assay type: functional, cell-based, Homo sapiens; conditions: Homo sapiens, MC116;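 further: growth inhibition of MC116 cells, read out with a cell viability assay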
Description: SANGER: Inhibition of human MC116 cell growth in a cell viability assay.

LU-139 = assay type: functional, cell-based, Homo sapiens; conditions: Homo sapiens, LU-139
Description: SANGER: Inhibition of human LU-139 cell growth in a cell viability assay.

CAS-1 = assay type: functional, cell-based, Homo sapiens; conditions: Homo sapiens, CAS-1;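 further: growth inhibition of CAS-1 cells, measured with a cell viability assay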
Description: SANGER: Inhibition of human CAS-1 cell growth in a cell viability assay.

NCI-H82 = assay type: functional, cell-based, Homo sapiens; conditions: Homo sapiens, NCI-H82;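 further: growth inhibition of NCI-H82 cells, measured with a cell viability readout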
Description: SANGER: Inhibition of human NCI-H82 cell growth in a cell viability assay.

DSH1 = assay type: functional, cell-based; conditions: Homo sapiens;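 further: growth inhibition of human DSH1 cells, measured with a cell viability readout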
Description: SANGER: Inhibition of human DSH1 cell growth in a cell viability assay.

GT3TKB = assay type: functional, cell-based, Homo sapiens; conditions: Homo sapiens, GT3TKB;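 further: growth inhibition of the cell line, read out with a cell viability assay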
Description: SANGER: Inhibition of human GT3TKB cell growth in a cell viability assay.

LB1047-RCC = assay type: functional, cell-based, Homo sapiens; conditions: Homo sapiens, LB1047-RCC;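 further: inhibition of cell growth, determined with a cell viability assay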
Description: SANGER: Inhibition of human LB1047-RCC cell growth in a cell viability assay.

TGBC1TKB = assay type: functional, cell-based, Homo sapiens; conditions: Homo sapiens, TGBC1TKB;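 further: growth inhibition of TGBC1TKB cells, read out by a cell viability assay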
Description: SANGER: Inhibition of human TGBC1TKB cell growth in a cell viability assay.

ES4 = assay type: functional, cell-based, Homo sapiens; conditions: Homo sapiens, ES4;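 further: growth inhibition of human ES4 cells, read out by a cell viability assay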
Description: SANGER: Inhibition of human ES4 cell growth in a cell viability assay.

JVM-2 = assay type: functional, cell-based, Homo sapiens; conditions: Homo sapiens, JVM-2;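 further: growth inhibition of JVM-2 cells determined by a cell viability assay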
Description: SANGER: Inhibition of human JVM-2 cell growth in a cell viability assay.

U-266 = assay type: functional, cell-based, Homo sapiens; conditions: Homo sapiens, U-266
Description: SANGER: Inhibition of human U-266 cell growth in a cell viability assay.

KURAMOCHI = assay type: functional, cell-based, Homo sapiens; conditions: Homo sapiens, KURAMOCHI;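 further: growth inhibition of KURAMOCHI cells, read out with a cell viability assay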
Description: SANGER: Inhibition of human KURAMOCHI cell growth in a cell viability assay.

NCI-H446 = assay type: functional, cell-based, Homo sapiens; conditions: Homo sapiens, NCI-H446;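 further: growth inhibition of NCI-H446 cells determined by a cell viability assay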
Description: SANGER: Inhibition of human NCI-H446 cell growth in a cell viability assay.

L-363 = assay type: functional, cell-based, Homo sapiens; conditions: Homo sapiens, L-363
Description: SANGER: Inhibition of human L-363 cell growth in a cell viability assay.

697 = assay type: functional, cell-based, Homo sapiens; conditions: Homo sapiens
Description: SANGER: Inhibition of human 697 cell growth in a cell viability assay.

NCI-H747 = assay type: functional, cell-based, Homo sapiens; conditions: Homo sapiens, NCI-H747;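 further: growth inhibition of human NCI-H747 cells, read out by a cell viability assay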
Description: SANGER: Inhibition of human NCI-H747 cell growth in a cell viability assay.

OS-RC-2 = assay type: functional, cell-based, Homo sapiens; conditions: Homo sapiens, OS-RC-2;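 further: growth inhibition of human OS-RC-2 cells, measured by a cell viability assay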
Description: SANGER: Inhibition of human OS-RC-2 cell growth in a cell viability assay.

NOS-1 = assay type: functional, cell-based, Homo sapiens; conditions: Homo sapiens, NOS-1;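 further: growth inhibition of the human NOS-1 cell line, read out with a cell viability assay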
Description: SANGER: Inhibition of human NOS-1 cell growth in a cell viability assay.

TK-10 = assay type: functional, cell-based, Homo sapiens; conditions: Homo sapiens, TK-10;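 further: growth inhibition of TK-10 cells, read out in a cell viability assay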
Description: SANGER: Inhibition of human TK10 cell growth in a cell viability assay.

A3-KAW = assay type: functional, cell-based, Homo sapiens; conditions: Homo sapiens, A3-KAW;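 further: growth inhibition of human A3-KAW cells, read out with a cell viability assay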
Description: SANGER: Inhibition of human A3-KAW cell growth in a cell viability assay.

EW-1 = assay type: functional, cell-based, Homo sapiens; conditions: Homo sapiens, EW-1
Description: SANGER: Inhibition of human EW-1 cell growth in a cell viability assay.

Molecule `Cc1ccc(-n2nc(C(C)(C)C)cc2NC(=O)Nc2ccc(OCCN3CCOCC3)c3ccccc23)cc1` [DORAMAPIMOD] has an IC50 (ATN-1) greater than 10 µM, an IC50 (NCI-H526) greater than 10 µM and an IC50 (IST-MES1) of 7.96 µM. It also gave an IC50 (HAL-01) greater than 10 µM, an IC50 (DJM-1) greater than 10 µM and an IC50 (KE-37) greater than 10 µM. The IC50 (HCE-T) was greater than 10 µM, the IC50 (SHP77) was greater than 10 µM and the IC50 (SW 962) was greater than 10 µM. The IC50 (BE-13) was greater than 10 µM, the IC50 (OVCAR-4) was greater than 10 µM and the IC50 (RXF 393) was greater than 10 µM. It also gave an IC50 (SBC-1) greater than 10 µM, an IC50 (NMC-G1) greater than 10 µM and an IC50 (EW-13) greater than 10 µM. For the same molecule, the IC50 (P30-OHK) was greater than 10 µM, the IC50 (LAMA-84) was greater than 10 µM and the IC50 (GCIY) was greater than 10 µM. It also gave an IC50 (ML-2) greater than 10 µM, an IC50 (CTB-1) greater than 10 µM and an IC50 (SK-NEP-1) greater than 10 µM. For the same molecule, the IC50 (COLO-684) was greater than 10 µM, the IC50 (SNU1) was 9.07 µM and the IC50 (RKO) was greater than 10 µM. The IC50 (SK-N-FI) was greater than 10 µM, the IC50 (NB10) was greater than 10 µM and the IC50 (A4-Fuk) was greater than 10 µM. For the same molecule, the IC50 (EW-3) was greater than 10 µM, the IC50 (JAR) was greater than 10 µM and the IC50 (MC116) was greater than 10 µM. For the same molecule, the IC50 (LU-139) was greater than 10 µM, the IC50 (CAS-1) was greater than 10 µM and the IC50 (NCI-H82) was greater than 10 µM. For the same molecule, the IC50 (DSH1) was greater than 10 µM, the IC50 (GT3TKB) was greater than 10 µM and the IC50 (LB1047-RCC) was greater than 10 µM. The IC50 (TGBC1TKB) was greater than 10 µM, the IC50 (ES4) was greater than 10 µM and the IC50 (JVM-2) was greater than 10 µM. For the same molecule, the IC50 (U-266) was greater than 10 µM, the IC50 (KURAMOCHI) was greater than 10 µM and the IC50 (NCI-H446) was greater than 10 µM. For the same molecule, the IC50 (L-363) was greater than 10 µM, the IC50 697 was greater than 10 µM and the IC50 (NCI-H747) was greater than 10 µM. For the same molecule, the IC50 (OS-RC-2) was greater than 10 µM, the IC50 (NOS-1) was greater than 10 µM and the IC50 (TK-10) was greater than 10 µM. The IC50 (A3-KAW) was greater than 10 µM and the IC50 (EW-1) was greater than 10 µM.
Work on `CC1=C(/C=C/C(C)=C/C=C/C(C)=C/C(=O)O)C(C)(C)CCC1` [TRETINOIN] yielded an IC50 (ATN-1) of 0.0303 µM, an IC50 (NCI-H526) of 7.68 µM and an IC50 (IST-MES1) greater than 10 µM. It also gave an IC50 (HAL-01) greater than 10 µM, an IC50 (DJM-1) greater than 10 µM and an IC50 (KE-37) greater than 10 µM. It also gave an IC50 (HCE-T) greater than 10 µM, an IC50 (SHP77) greater than 10 µM and an IC50 (SW 962) greater than 10 µM. The IC50 (BE-13) was greater than 10 µM, the IC50 (OVCAR-4) was greater than 10 µM and the IC50 (RXF 393) was greater than 10 µM. It also gave an IC50 (SBC-1) greater than 10 µM, an IC50 (NMC-G1) greater than 10 µM and an IC50 (EW-13) of 7.61 µM. For the same molecule, the IC50 (P30-OHK) was greater than 10 µM, the IC50 (LAMA-84) was 0.996 µM and the IC50 (GCIY) was greater than 10 µM. The IC50 (ML-2) was 4 µM, the IC50 (CTB-1) was 1.6 µM and the IC50 (SK-NEP-1) was 0.662 µM. It also gave an IC50 (COLO-684) greater than 10 µM, an IC50 (SNU1) greater than 10 µM and an IC50 (RKO) greater than 10 µM. The IC50 (SK-N-FI) was greater than 10 µM, the IC50 (NB10) was greater than 10 µM and the IC50 (A4-Fuk) was greater than 10 µM. It also gave an IC50 (EW-3) of 0.48 µM, an IC50 (JAR) greater than 10 µM and an IC50 (MC116) greater than 10 µM. For the same molecule, the IC50 (LU-139) was greater than 10 µM, the IC50 (CAS-1) was greater than 10 µM and the IC50 (NCI-H82) was greater than 10 µM. For the same molecule, the IC50 (DSH1) was greater than 10 µM, the IC50 (GT3TKB) was greater than 10 µM and the IC50 (LB1047-RCC) was greater than 10 µM. For the same molecule, the IC50 (TGBC1TKB) was greater than 10 µM, the IC50 (ES4) was greater than 10 µM and the IC50 (JVM-2) was 1.17 µM. The IC50 (U-266) was 4.12 µM, the IC50 (KURAMOCHI) was greater than 10 µM and the IC50 (NCI-H446) was greater than 10 µM. It also gave an IC50 (L-363) of 2.07 µM, an IC50 697 greater than 10 µM and an IC50 (NCI-H747) greater than 10 µM. For the same molecule, the IC50 (OS-RC-2) was greater than 10 µM, the IC50 (NOS-1) was greater than 10 µM and the IC50 (TK-10) was greater than 10 µM. The IC50 (A3-KAW) was 7.6 µM and the IC50 (EW-1) was greater than 10 µM.
